# Counter-ions that a name gives are not always drawn. The source made the active and inactive calls. The calls are words filed in the database; no cut-off is given here.
# How the values were obtained:
# [1] = system: MDA-MB-231; assay: Antiproliferative activity against human MDA-MB-231 cells after 48 hrs by MTT assay; type: functional, cell-based; conditions: MDA-MB-231, 48 h
# [2] = system: HCT-8; assay: Antiproliferative activity against human HCT8 cells after 48 hrs by MTT assay; type: functional, cell-based; conditions: HCT-8, 48 h
# [3] = system: A549; assay: Antiproliferative activity against human A549 cells after 48 hrs by MTT assay; type: functional, cell-based; conditions: A549, 48 h
# [4] = system: A2780S; assay: Antiproliferative activity against human A2780S cells after 48 hrs by MTT assay; type: functional, cell-based
# [5] = system: MCF7; assay: Antiproliferative activity against human MCF7 cells after 48 hrs by MTT assay; type: functional, cell-based; conditions: MCF7, 48 h
# [6] = system: L02; assay: Antiproliferative activity against human LO2 cells after 48 hrs by MTT assay; type: cell-based; conditions: L02, 48 h
# [7] = system: HEK293; assay: Antiproliferative activity against HEK293 cells after 48 hrs by MTT assay; type: cell-based; conditions: Homo sapiens, HEK293, 48 h
# [8] = system: A2780S; assay: Induction of alpha-tubulin depolymerization in human A2780S cells at 100 nM after 24 hrs by DAPI staining based immunofluorescence microscopic method; type: cell-based
# [9] = system: HepG2; assay: Binding affinity to beta-tubulin colchicine binding site in human HepG2 cells assessed as reduction in EBI-beta-tubulin adduct formation at 5 uM preincubated for 2 hrs followed by EBI addition measured after 1.5 hrs by Western blot analysis; type: cell-based
# [10] = Solubility of the compound in physiological saline at 1 mg; type: physicochemical; conditions: buffer
# [11] = Antiproliferative activity against human HCT8/V cells after 48 hrs by MTT assay; type: functional, cell-based; conditions: HCT-8, 48 h
# [12] = Resistance index, ratio of IC50 for human HCT8/V cells to IC50 for human HCT8 cells; type: functional
# [13] = system: NCI/ADR-RES; assay: Antiproliferative activity against human MCF7/ADR cells after 48 hrs by MTT assay; type: functional, cell-based
Compound,IC50 [1] [nM],solubility [10],further results
COc1cc2c(c(OC)c1OC)-c1ccc(OC)c(=O)cc1[C@@H](NC(C)=O)CC2 [COLCHICINE],38.2,,IC50 [2]: 13.4 nM; IC50 [3]: 32.7 nM; IC50 [4]: 12.3 nM; IC50 [5]: 13.4 nM; IC50 [6]: 26.5 nM; IC50 [7]: 10.2 nM; Activity [8]: Active; Activity [9]: Active
CCOC(=O)C(=O)Nc1cc(N(C)c2cc(C)nc3ccccc23)ccc1OC,443,Soluble,
COc1ccc(N(C)c2ccnc3ccccc23)cc1,> 500,Insoluble,
CCCC(=O)Nc1cc(N(C)c2cc(C)nc3ccccc23)ccc1OC,58.4,Insoluble,
COc1ccc(N(C)c2ccnc3ccccc23)cc1N,> 500,Soluble,
COc1ccc(N(C)c2cc(C)nc3ccccc23)cc1NC(=O)CCl,6.6,Soluble,
COc1ccc(N(C)c2cc(C)nc3ccccc23)cc1NC(=O)CBr,87.2,Soluble,
CC[C@]1(O)C[C@@H]2CN(CCc3c([nH]c4ccccc34)[C@@](C(=O)OC)(c3cc4c(cc3OC)N(C)[C@H]3[C@@](O)(C(=O)OC)[C@H](OC(C)=O)[C@]5(CC)C=CCN6CC[C@]43[C@@H]65)C2)C1 [VINBLASTINE],,,IC50 [2]: 20.2 nM; IC50 [11]: 2060 nM; Ratio IC50 [12]: 101.8
COc1ccc(N(C)c2cc(C)nc3ccccc23)cc1NC(=O)CN1CCCC(C)C1 (centres undefined),394,Insoluble,
CSc1ccc(N(C)c2cc(C)nc3ccccc23)cc1,15.5,Soluble,
COc1ccc(N(C)c2cc(C)nc3ccccc23)cc1NC(=O)CN(C)CCC#N,> 500,Insoluble,
CCCCC(=O)Nc1cc(N(C)c2cc(C)nc3ccccc23)ccc1OC,82.4,Insoluble,
COc1cccc2c1C(=O)c1c(O)c3c(c(O)c1C2=O)C[C@@](O)(C(=O)CO)C[C@@H]3O[C@H]1C[C@H](N)[C@H](O)[C@H](C)O1 [DOXORUBICIN HYDROCHLORIDE],,,IC50 [13]: 54800 nM
COc1ccc(N(C)c2cc(Cl)nc3ccccc23)cc1N,43.1,Insoluble,
COC(=O)C(=O)Nc1cc(N(C)c2cc(C)nc3ccccc23)ccc1OC,> 500,Insoluble,
COc1ccc(N(C)c2cc(C)nc3ccccc23)cc1NC(=O)CCCCCl,363,Insoluble,
